In ChEMBL document CHEMBL3217618, “The use of phosphate bioisosteres in medicinal chemistry and chemical biology” (Medchemcomm, 2012):
Numbered stars: 1 amine (or outer) side, 2 acyl side, 3 side chain; on linkers, the order of the positions; unused ones are H or OH. Square brackets hold non-standard residues; d marks the D form. Peptide text beside a SMILES is read from it. X1 = NS(=O)(=O)Cc1ccc(C[C@H](N[*:1])C(=O)[*:2])cc1

Columns and labels:
[1] = biological target: T1, Tyrosine-protein phosphatase non-receptor type 1 (Homo sapiens) (UniProt P18031); assay: Inhibition of PTP1B (unknown origin) at 11 uM
T1 sequence (whole entry): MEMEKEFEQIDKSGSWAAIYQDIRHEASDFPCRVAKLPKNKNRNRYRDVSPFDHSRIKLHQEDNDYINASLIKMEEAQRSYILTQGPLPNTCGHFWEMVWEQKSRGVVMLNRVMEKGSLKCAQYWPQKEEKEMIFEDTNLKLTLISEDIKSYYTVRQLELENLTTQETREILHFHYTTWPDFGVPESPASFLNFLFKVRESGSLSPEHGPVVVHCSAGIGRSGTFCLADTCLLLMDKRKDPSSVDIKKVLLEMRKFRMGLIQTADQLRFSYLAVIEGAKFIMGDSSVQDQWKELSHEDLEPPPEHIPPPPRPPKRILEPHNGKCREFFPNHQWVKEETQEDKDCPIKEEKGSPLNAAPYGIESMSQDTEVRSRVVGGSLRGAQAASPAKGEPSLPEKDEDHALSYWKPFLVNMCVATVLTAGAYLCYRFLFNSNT

[2] = Inhibition of Streptococcus pneumoniae PIsY1
[3] = Inhibition of Bacillus anthracis PIsY1
[4] = Inhibition of Yersinia pestis protein tyrosine phosphatase
[5] = Agonist activity at INSP3R in MFF assessed as calcium influx; design: species or system Mus musculus
[6] = biological target: Growth factor receptor-bound protein 2 (Homo sapiens, UniProt P62993); assay: Binding affinity to SH2 domain of GRB2 (unknown origin) by surface plasmon resonance assay
Sequence of Growth factor receptor-bound protein 2 (P62993 whole entry, the tested form may be a part): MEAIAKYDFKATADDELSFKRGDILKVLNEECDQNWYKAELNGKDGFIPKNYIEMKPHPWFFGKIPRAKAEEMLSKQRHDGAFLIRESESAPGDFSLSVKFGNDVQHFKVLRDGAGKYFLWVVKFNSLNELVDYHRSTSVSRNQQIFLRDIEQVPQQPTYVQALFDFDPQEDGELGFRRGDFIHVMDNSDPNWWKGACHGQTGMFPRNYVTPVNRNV

In the case of CCCCCNC(=O)[C@H](Cc1ccc(OC(C(=O)O)C(=O)O)cc1)NC(=O)CCC(=O)O, the inhibition [1] is reported as 80%.

CCCCCC/C=C/CCCCCCCCCC(=O)NP(=O)(O)O gave an IC50 [2] of 11 µM.

Compound CCCCCCCCCCCCCCCC(=O)C(F)(F)P(=O)(O)O has an IC50 [2] of 39 µM and an IC50 [3] of 50 µM.

CCCCCCCC/C=C/CCCCCCCC(=O)NS(=O)(=O)NCCC gave an IC50 [3] of 200 µM.

Work on CC(=O)N[C@@H](CC(=O)O)C(=O)N[C@@H](C)C(=O)N[C@@H](CC(=O)O)C(=O)N[C@@H](CCC(=O)O)C(=O)N[C@@H](Cc1ccc(CS(N)(=O)=O)cc1)C(=O)N[C@@H](CC(C)C)C(N)=O (Ac-DADE[X1]L-NH2) yielded an IC50 [4] of 370 nM.

With CCCCCCCCCCCCCCCC(=O)CP(=O)(O)O the IC50 [3] was 90 µM.

Work on COP(=O)(O)O[C@@H]1[C@@H](O)[C@H](OP(=O)(O)O)[C@H](O)[C@H](O)[C@H]1OP(=O)(O)O yielded an IC50 [5] of 9.7 µM.

In the case of CCCCCCCCCCCCCCCC(=O)NS(=O)(=O)Oc1ccc(OC)cc1, the IC50 [3] is reported as 35 µM.

Cc1ccc2c(ccn2C[C@@H]2C/C=C\C[C@H](c3ccc(CP(C)(=O)O)cc3)[C@H](CC(=O)O)C(=O)NC3(CCCCC3)C(=O)N[C@@H](CC(N)=O)C(=O)NC2)c1 showed a Kd [6] of 16.2 nM.
